In ChEMBL document CHEMBL1201862, “PubChem BioAssay data set” (2004) one finds AC50 and EC50 data, which are given here for 45 compounds.

One data set concerns the target Cytochrome P450 3A4 (Homo sapiens, UniProt P08684).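 Also: CYP3A4 tested as one member of a cytochrome P450 panel screen.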
The test system of data set [1] is Streptococcus sp. 'group A'. Put plainly: Streptococcus pyogenes SK(-)GAS viability under kanamycin – luminescence, BacTiterGlo, confirmation, counter-screen for streptokinase expression inhibitor project, dose response (AID 1900). The format is functional, organism-based. (Counterscreens check selectivity or assay interference.)
For another data set, the system named is Streptococcus. Put plainly: GAS UMAA2166 growth inhibition – luminescence, BacTiterGlo, counter-screen for streptokinase expression inhibitor project, dose response (AID 1915).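 Also: potency for reduction of bacterial viability or growth.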 The format is functional, organism-based.
Data set [2] can be described thus: luciferase reporter signal suppression in cells – H4 neuroglioma cells, luminescence, dose response (AID 1990). It counts as functional, cell-based. For orientation: In a reporter assay the amount or activity of a reporter protein is the signal.
Data set [3] is described as follows: Luminescence Cell-Based Dose Response HTS to Identify Inhibitors of 5'UTR Stem-Loop Driven Prion Protein mRNA Translation in H4 Neuroglioblastoma Cells. [Related pubchem assays: 1827 (Project Summary), 1813 (Primary HTS)]. The format is functional.
Data set [4] in a line: alpha-synuclein stem-loop luciferase translation blockers – H4 neuroglioma cells, luminescence, confirmation (AID 1988). The format is functional, cell-based.
The nature of data set [5]: Luminescence Cell-Based Dose Response HTS to Identify Activators of Luciferase Translation or Activity in H4 […] Cells. [Related pubchem assays: 1829 (Project Summary), 1814 (Primary HTS)]. The format is functional.
The next data set deals with H4. Put plainly: Luminescence Cell-Based Dose Response HTS to Identify Activators of 5'UTR Stem-Loop Driven Prion Protein mRNA Translation in H4 Neuroglioblastoma Cells. [Related pubchem assays: 1829 (Project Summary), 1814 (Primary HTS)]. The format is functional. As to conditions: Homo sapiens.
A further data set concerns the target Cytochrome P450 2C19 (Homo sapiens, UniProt P33261). Put plainly: Cytochrome panel assay with activity outcomes. Panel member name: p450-cyp2c19 Compounds with AC50 equal or less than 10 uM are considered active. It counts as functional.
Another data set deals with Cytochrome P450 2D6 (Homo sapiens, UniProt P10635).
Chain of Cytochrome P450 2D6 (P10635 whole entry): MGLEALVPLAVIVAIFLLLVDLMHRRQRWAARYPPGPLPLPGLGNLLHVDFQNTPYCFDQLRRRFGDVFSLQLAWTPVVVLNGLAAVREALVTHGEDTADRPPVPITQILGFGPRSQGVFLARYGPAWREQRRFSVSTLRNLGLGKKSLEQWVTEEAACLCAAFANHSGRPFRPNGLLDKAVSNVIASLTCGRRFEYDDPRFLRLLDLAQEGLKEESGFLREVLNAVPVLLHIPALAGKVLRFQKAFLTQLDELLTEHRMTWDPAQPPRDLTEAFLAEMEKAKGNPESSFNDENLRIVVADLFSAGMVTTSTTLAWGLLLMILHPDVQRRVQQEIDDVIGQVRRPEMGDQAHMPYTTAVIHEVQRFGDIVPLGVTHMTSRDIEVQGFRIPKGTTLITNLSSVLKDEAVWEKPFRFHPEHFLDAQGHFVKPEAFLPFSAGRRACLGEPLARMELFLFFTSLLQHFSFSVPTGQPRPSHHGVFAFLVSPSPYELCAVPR
In the next data set the target is T1, Protein RecA (Mycobacterium tuberculosis, UniProt P9WHJ3).
T1 sequence (P9WHJ3 whole entry): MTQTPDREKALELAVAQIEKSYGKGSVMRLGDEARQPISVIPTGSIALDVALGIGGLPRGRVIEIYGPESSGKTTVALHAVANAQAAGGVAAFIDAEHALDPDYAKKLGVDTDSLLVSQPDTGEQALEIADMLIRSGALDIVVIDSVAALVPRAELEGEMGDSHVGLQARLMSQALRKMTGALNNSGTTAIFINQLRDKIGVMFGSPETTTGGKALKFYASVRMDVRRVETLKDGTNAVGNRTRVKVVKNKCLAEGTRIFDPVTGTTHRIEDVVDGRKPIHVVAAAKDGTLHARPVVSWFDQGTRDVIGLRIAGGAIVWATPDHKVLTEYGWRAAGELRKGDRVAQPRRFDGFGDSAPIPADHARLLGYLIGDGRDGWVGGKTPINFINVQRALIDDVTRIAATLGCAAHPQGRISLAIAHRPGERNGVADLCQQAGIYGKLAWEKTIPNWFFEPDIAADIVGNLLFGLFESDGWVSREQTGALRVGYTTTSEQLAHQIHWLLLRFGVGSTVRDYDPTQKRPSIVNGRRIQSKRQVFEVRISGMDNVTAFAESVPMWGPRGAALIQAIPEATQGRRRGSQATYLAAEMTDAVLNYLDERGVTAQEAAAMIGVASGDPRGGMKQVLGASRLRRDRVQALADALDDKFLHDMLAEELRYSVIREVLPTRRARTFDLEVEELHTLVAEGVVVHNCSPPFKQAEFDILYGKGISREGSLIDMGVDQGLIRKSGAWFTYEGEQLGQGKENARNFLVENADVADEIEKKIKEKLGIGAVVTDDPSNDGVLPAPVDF
Put plainly: Fluorescence Cell-Free Homogeneous Dose Retest to Identify Inhibitors of RecA-Intein Splicing Activity. [Related pubchem assays (depositor defined):AID2097, AID2223, AID489010, AID492950]. It counts as functional.

Structures are written as SMILES. The source made the active and inactive calls.

Chain of Cytochrome P450 3A4 (P08684 whole entry): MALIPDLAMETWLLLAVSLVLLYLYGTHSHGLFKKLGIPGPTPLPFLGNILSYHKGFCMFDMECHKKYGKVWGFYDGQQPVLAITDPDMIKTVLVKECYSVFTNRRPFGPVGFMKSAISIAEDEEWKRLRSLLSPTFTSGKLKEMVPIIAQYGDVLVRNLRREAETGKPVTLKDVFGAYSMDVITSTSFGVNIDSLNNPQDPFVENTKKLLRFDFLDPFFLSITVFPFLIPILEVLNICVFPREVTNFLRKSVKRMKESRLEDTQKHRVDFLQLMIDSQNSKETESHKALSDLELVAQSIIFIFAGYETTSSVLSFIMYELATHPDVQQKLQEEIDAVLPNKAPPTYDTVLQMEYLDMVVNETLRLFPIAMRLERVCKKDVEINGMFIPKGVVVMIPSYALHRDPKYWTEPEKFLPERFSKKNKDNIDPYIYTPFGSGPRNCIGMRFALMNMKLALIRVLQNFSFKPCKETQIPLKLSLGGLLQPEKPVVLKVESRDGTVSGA
Chain of Cytochrome P450 2C19 (P33261 whole entry): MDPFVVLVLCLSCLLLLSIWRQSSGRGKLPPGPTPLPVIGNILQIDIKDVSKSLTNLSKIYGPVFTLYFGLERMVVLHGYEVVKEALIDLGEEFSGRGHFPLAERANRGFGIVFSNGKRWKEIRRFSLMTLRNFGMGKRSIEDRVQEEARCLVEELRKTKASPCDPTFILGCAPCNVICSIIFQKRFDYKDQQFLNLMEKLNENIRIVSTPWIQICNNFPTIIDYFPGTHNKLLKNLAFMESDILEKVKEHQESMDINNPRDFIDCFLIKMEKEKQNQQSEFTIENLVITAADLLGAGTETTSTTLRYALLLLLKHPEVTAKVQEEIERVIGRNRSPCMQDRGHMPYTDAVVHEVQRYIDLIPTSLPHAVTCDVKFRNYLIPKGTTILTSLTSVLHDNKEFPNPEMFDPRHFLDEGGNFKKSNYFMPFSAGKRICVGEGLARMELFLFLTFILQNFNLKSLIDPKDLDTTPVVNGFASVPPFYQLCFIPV

With `O=c1c(-c2cccs2)nc2cnc(Oc3cccc(Cl)c3)nc2n1C[C@H]1CCCO1`, the AC50 on Cytochrome P450 3A4 is 10 µM (inconclusive).
For the compound `Cc1cccc(OCC(=O)NCC(=O)N/N=C/c2cc(Br)cc(Br)c2O)c1`, the EC50 in data set [1] was 0.486 µM (active); in the data set on Streptococcus, 1.66 µM (active).
In the case of `CCCc1nc2oc3c(NCCCN(C)C)ncnc3c2c2c1CCCC2`, the EC50 was 12.5 µM (active) in [2], > 120 µM (not active) in data set [3] and 8.73 µM (active) in data set [4].
For `O=C(C1CCCN(S(=O)(=O)c2ccc(Br)cc2)C1)N1CCN(Cc2ccccc2)CC1` (stereo unspecified), the EC50 in data set [2] was 15.5 µM (active); in data set [3], > 120 µM (not active); in [4], 22.7 µM (active).
As for `COc1ccc(/C=C/C(=O)c2c(C)nc3ccccn23)cc1`, the EC50 in data set [5] was 0.225 µM (active); with H4, > 120 µM (not active).
On to `CCc1ccc(CNC(=O)C2CCN(S(=O)(=O)N3CC(C)CC(C)C3)CC2)cc1` (stereo unspecified), for which the half-maximal effective concentration (EC50) in data set [2] is > 120 µM (not active); in data set [3], > 120 µM (not active); in data set [4], 93.3 µM (active).
Regarding `CN(C)c1ccc(-c2nc(NCc3cccnc3)c3ccccc3n2)cc1`, on Cytochrome P450 2C19 (read-out: AC50), the AC50 was 10 µM (inconclusive).
On to `CCn1c(S)nnc1CC(=O)Nc1ccc(C)cc1`, for which the EC50 in data set [2], in data set [3] and in [4] was > 120 µM (not active) throughout.
Turning to `Cc1ccc2[nH]c(SCC(=O)Nc3nnc(SCC(N)=O)s3)nc2c1`, the AC50 at Cytochrome P450 2C19 (read-out: AC50) and at Cytochrome P450 3A4 was 22.4 µM (inconclusive) throughout.
As to `O=C(c1ccncc1)N1CCC2(CCN(Cc3nccs3)CC2)CC1`, the AC50 on Cytochrome P450 2D6 is 15.8 µM (inconclusive).
For the compound `C[C@@]12C(=O)N(Cc3ccccc3)CC(=O)N1[C@H](/C=C/c1ccccc1)[C@@H]1C(=O)N(c3ccccc3)C(=O)[C@@H]12`, the results for the EC50 in data set [2], in data set [3] and in data set [4] were 25.8 µM (active), > 120 µM (not active) and 14.9 µM (active), respectively.
Turning to `CCOC(=O)CSc1nnc(CSc2nc3sc4c(c3c(=O)[nH]2)CCCC4)n1-c1ccccc1`, at Cytochrome P450 3A4, the AC50 is 1 µM (inconclusive).
As for `COc1ccc2c(c1)C1=NN(/C(C)=C\C(C)=O)C(c3ccccc3)C1CC2` (stereo unspecified), the EC50 in [5] was 24.7 µM (active); with H4, 7.74 µM (active).
`O=C(O)CCC(=O)N1CCC[C@H]1C(=O)O`: on Cytochrome P450 2C19, the AC50 result is given as “inconclusive”.
Turning to `COc1ccc([N+](=O)[O-])cc1N=C(S)NC(NC(=O)C(c1ccccc1)c1ccccc1)C(Cl)(Cl)Cl` (stereo unspecified), the EC50 in [1] was 14.4 µM (active); in the data set with Streptococcus, > 150 µM (not active).
Turning to `COc1cccc(N2C(=O)C(CC(=O)Nc3ccccc3)N(C3CCCCC3)C2=O)c1` (stereo unspecified), the AC50 on Cytochrome P450 2D6 is 17.8 µM (inconclusive).
Regarding `COc1ccc(-c2cc(C)no2)cc1S(=O)(=O)N1CCOc2ccccc21`, the EC50 in [2] was > 120 µM (not active); in data set [3], 83.5 µM (active); in data set [4] it was 31.4 µM (active).
Take `CCO/C=C1/C(=O)N(Cc2ccccc2)C(=O)c2ccccc21`: the EC50 on Protein RecA is > 380 µM (inactive).
With `Cc1ccc(Sc2nc(C)cc(C)c2S(C)(=O)=O)cc1`, the AC50 is 17.8 µM (inconclusive) on Cytochrome P450 2D6 and 14.1 µM (inconclusive) on Cytochrome P450 3A4.
`CCOc1cc(C2NC(=O)NC(c3ccccc3)=C2C(C)=O)ccc1OCC(N)=O` (stereo unspecified): the AC50 at Cytochrome P450 3A4 is 20 µM (inconclusive).
On to `O=C(/C=C/c1c(F)cccc1Cl)Nc1ncccn1`, for which the EC50 in [5] is 0.974 µM (active); in the data set on H4 it was 7.88 µM (active).
Regarding `Cc1ccc(CCN2CC(C(=O)NCCN3CCCCCC3)CC2=O)cc1` (stereo unspecified), the AC50 result on Cytochrome P450 2C19 is “inconclusive”; at Cytochrome P450 2D6 it was 20 µM (inconclusive); at Cytochrome P450 3A4, 35.5 µM (inconclusive).
Regarding `COCCNc1ncnc2ccc(-c3c(C)noc3C)cc12`, the AC50 at Cytochrome P450 3A4 was 31.6 µM (inconclusive).
`COc1ccc(O[C@H]2C=C[C@@H](c3ccccc3)O[C@H]2COC(=O)N2CCCCC2)cc1`: the AC50 at Cytochrome P450 2D6 is 3.98 µM (inconclusive).
Turning to `CCOc1ccccc1NS(=O)(=O)c1ccc(Br)s1`, the EC50 in data set [2] is > 120 µM (not active); in [3], 25.2 µM (active); in data set [4], > 120 µM (not active).
Take `COCCn1c(=O)c(C)nc2cnc(Oc3cccc(Cl)c3)nc21`: the AC50 at Cytochrome P450 2C19 (read-out: AC50) is 20 µM (inconclusive).
`SC1=NC2=C(C(c3ccc(Br)cc3)N1)N1CCC2CC1` (stereo unspecified): at Cytochrome P450 3A4, the AC50 was 1.58 µM (inconclusive).
`O=C(/C=C\c1ccccc1)c1ccccc1O`: the concentration at half-maximal activity (AC50) at Cytochrome P450 2C19 (read-out: AC50) is 3.98 µM (inconclusive).
For the compound `COc1ccc(-n2c(=O)c(C)nc3cnc(OC)nc32)cc1`, the AC50 at Cytochrome P450 2C19 (read-out: AC50) was 39.8 µM (inconclusive); on Cytochrome P450 3A4, 25.1 µM (inconclusive).
On to `CNCCc1c[nH]c2ccc(O)cc12`, for which the AC50 on Cytochrome P450 2D6 is 39.8 µM (inconclusive).
For the compound `COc1ccc(CCNS(=O)(=O)c2cccc3cccnc23)cc1OC`, the EC50 in data set [2], in data set [3] and in [4] was > 120 µM (not active) each time.
In the case of `CCCC[C@@H]1C[C@H]1C(NC(=O)Cc1ccccc1)c1ccc(-c2ccccc2)cc1` (stereo partly specified), the AC50 on Cytochrome P450 3A4 is 12.6 µM (inconclusive).
With `CS(=O)(=O)N1CCC2(CCCN(C(c3ccccc3)c3ccccc3)C2)CC1`, the AC50 at Cytochrome P450 2C19 (read-out: AC50) is 20 µM (inconclusive).
As for `CCC(C)(C)n1nnnc1C(c1ccc(C)cc1)N1CCC(C)CC1` (stereo unspecified), the AC50 at Cytochrome P450 2D6 was 17.8 µM (inconclusive).
`COC(=O)C1N2C(=O)[C@@H](NC(=O)COc3ccccc3)[C@H]2SC1(C)C` (stereo partly specified): the values for the EC50 (in [1]; in the data set with Streptococcus) were 0.535 µM (active) and 0.889 µM (active), respectively.
As for `CC(=O)N1CCC[C@@]2(CCN(Cc3ccc(C#N)cc3)C2)C1`, the AC50 on Cytochrome P450 2D6 was 12.6 µM (inconclusive).
`O=C(/C=C/c1ccccc1)N/C(=C/c1ccccc1)C(=O)Nc1ccccc1O`: the AC50 was 17.8 µM (inconclusive) on Cytochrome P450 2C19 (read-out: AC50) and 22.4 µM (inconclusive) on Cytochrome P450 2D6.
As to `CC(=O)Nc1ccc(S(=O)(=O)N(Cc2cccnc2)Cc2cc3ccc(C)cc3nc2O)cc1`, the EC50 in data set [2], in data set [3] and in data set [4] was > 120 µM (not active) throughout.
Consider `O=[N+]([O-])c1cc(/C=N/O)ccc1SCc1ccccc1`, for which the figures for the half-maximal activity concentration (AC50) on Cytochrome P450 2C19 (read-out: AC50) and on Cytochrome P450 3A4 were 6.31 µM (inconclusive) and 11.2 µM (inconclusive), respectively.
In the case of `COc1cccc(-c2nc(NC3CCNCC3)c3ccccc3n2)c1`, the half-maximal activity concentration (AC50) at Cytochrome P450 3A4 was 25.1 µM (inconclusive).
`COc1ccc(NC(=O)N2CC[C@@]3(CCCN(C(=O)c4cccn4C)C3)C2)cc1`: on Cytochrome P450 3A4, the AC50 is 2 µM (inconclusive).
Consider `CC(=O)NCCNc1ncncc1-c1ccccc1CN(C)C`, for which the results for the half-maximal activity concentration (AC50) on Cytochrome P450 2D6 and on Cytochrome P450 3A4 were 39.8 µM (inconclusive) and 12.6 µM (inconclusive), respectively.
As to `O=C(c1cnc(N2CCN(c3ncccn3)CC2)c2ccccc12)N1CCN(c2ncccn2)CC1`, the figures for the AC50 on Cytochrome P450 2D6 and at Cytochrome P450 3A4 were 11.2 µM (inconclusive) and 39.8 µM (inconclusive), respectively.
As for `Cc1ccccc1-c1nc(NCc2cccnc2)c2ccccc2n1`, the AC50 at Cytochrome P450 2C19 (read-out: AC50) is 15.8 µM (inconclusive); on Cytochrome P450 2D6, 39.8 µM (inconclusive).
On to `CCOC(=O)c1cnc2c(OC)cccc2c1N1CCN(c2ccccn2)CC1`, for which the EC50 in data set [2] is 15.6 µM (active); in data set [3], 53.9 µM (active); in data set [4], 11.5 µM (active).

By AC50 is commonly meant the concentration at which the activity in the assay is half-maximal. The term EC50 denotes the concentration giving half of the maximal effect.
